{"source": "paper PMC6133773", "about": "(The Journal of organic chemistry, 2018)", "key": {"IspD [1]": {"molecular_target": "T1, IspD (Escherichia coli, UniProt Q46893)", "T1 sequence (Q46893 2-236)": "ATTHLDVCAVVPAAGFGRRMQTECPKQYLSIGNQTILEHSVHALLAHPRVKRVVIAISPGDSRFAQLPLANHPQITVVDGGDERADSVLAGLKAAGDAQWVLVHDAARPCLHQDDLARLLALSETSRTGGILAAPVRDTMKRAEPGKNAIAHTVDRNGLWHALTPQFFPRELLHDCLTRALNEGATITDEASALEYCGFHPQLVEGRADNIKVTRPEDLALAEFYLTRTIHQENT", "assay": "MESG coupled pyrophosphate assay, inhibition of MEP turnover", "format": "biochemical"}, "IspD [2]": {"molecular_target": "T2, IspD (Plasmodium falciparum, UniProt Q8I273)", "T2 sequence (Q8I273 60-734)": "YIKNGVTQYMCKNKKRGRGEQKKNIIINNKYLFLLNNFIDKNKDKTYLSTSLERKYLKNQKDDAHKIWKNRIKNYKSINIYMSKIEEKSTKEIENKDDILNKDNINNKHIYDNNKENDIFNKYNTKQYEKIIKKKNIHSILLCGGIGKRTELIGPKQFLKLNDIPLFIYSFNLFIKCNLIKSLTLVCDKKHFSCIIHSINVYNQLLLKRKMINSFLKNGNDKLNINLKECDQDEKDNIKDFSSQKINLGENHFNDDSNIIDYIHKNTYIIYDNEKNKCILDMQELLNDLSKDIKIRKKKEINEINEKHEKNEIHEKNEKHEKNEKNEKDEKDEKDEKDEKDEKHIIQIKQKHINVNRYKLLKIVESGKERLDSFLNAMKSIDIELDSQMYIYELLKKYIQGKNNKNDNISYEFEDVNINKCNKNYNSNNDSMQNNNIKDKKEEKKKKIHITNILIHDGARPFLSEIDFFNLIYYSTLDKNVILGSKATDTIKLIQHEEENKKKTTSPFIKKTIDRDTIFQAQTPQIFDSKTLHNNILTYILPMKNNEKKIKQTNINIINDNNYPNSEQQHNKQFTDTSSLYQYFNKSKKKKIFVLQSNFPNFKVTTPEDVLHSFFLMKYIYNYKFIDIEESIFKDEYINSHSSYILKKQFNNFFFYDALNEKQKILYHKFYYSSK", "assay": "MESG coupled pyrophosphate assay, inhibition of MEP turnover", "format": "biochemical"}}}
{"smiles": "C[C@](O)(CO)[C@H](O)C[C@@H](F)P(=O)(O)O", "note": "[5b, (5S)-D-methylerythritol monofluoromethyl phosphonate]", "values": [{"measurement": "IC50", "setting": "IspD [1]", "value": "700 ± 100", "unit": "µM"}, {"measurement": "IC50", "setting": "IspD [2]", "value": "1300 ± 700", "unit": "µM"}]}
